Laboratory results reported in US9776999B2, “Antiparisitic dihydroazole compounds and compositions comprising same” (MERIAL, INC., priority 2009, dated 2017).

Tested on: Ctenocephalides felis
Experiment: Contact activity of compounds against fleas (Method B)
Details: adult fleas, treated filter paper; 72 hours assessment; test concentration of 100 ppm or less; versus untreated controls
Procedure: METHOD B: Screening Method to test Contact Activity of Compounds Against Fleas
A solution of the test compound was dispensed, using a pipette, onto filter paper placed into a glass vial. The filter paper was allowed to dry before infesting each vial with 10 adult Ctenocephalides felis. The treated Ctenocephalides felis were held in a controlled environment (24° C., 90-95% relative humidity) and assessment was performed at 24, 48 and 72 hours after application in comparison with untreated controls.

In the case of CSCCNC(=O)c1ccc(C2=NOC(c3cc(C(F)(F)F)cc(C(F)(F)F)c3)(C(F)(F)F)C2)n2cccc12 (stereo not shown) [Compound 1.009, 5-[5-(3,5-Bistrifluoromethylphenyl)-5-trifluoromethyl-4,5-dihydroisoxazol-3-yl]-indolizine-8-carboxylic acid (2-methylthioethyl)-amide], the “control (Ctenocephalides felis, contact)” value is reported as “at least 80%”.
